Like-named read-outs stand apart in the source and are kept apart here.
Assays:
Test in all cases: Growth inhibitory activity of compounds on BaF3 cell lines stably transfected with kinase (MTS, 48 h)
Assay type in all cases: cell-based
[1] = target: T1, various mutants of kinase EGFR (BaF3 cell lines stably transfected with kinase) (Homo sapiens, UniProt P00533)
T1 construct: other: BaF3 cells stably transfected with EGFR Δ19Del; MTS, 48 h; other: BaF3 cell line stably transfected with EGFR Δ19Del
Method: (§1) The activity of compounds against various mutants of kinase EGFR was evaluated by their effect of inhibiting growth of BaF3 cell lines stably transfected with kinase. The specific test method was given as follows:
(§2) 1) Culture medium: DMEM (Dulbecco’s modified eagle medium) or RPMI 1640 (containing 10% fetal bovine serum, 100 µg/mL ampicillin, 100 µg/mL streptomycin).
(§3) 2) Reagent: MTS reaction solution (containing 2 mg/mL of MTS [3-(4,5-dimethylthiazol-2-yl)-5-(3-carboxymethoxyphenyl)-2-(4-sulfophenyl)-2H-tetrazoliu m, inner Salt]; 100 µg/mL of PES ([…])).
(§4) 3) Compound test: cells were incubated into a 96-well culture plate, the volume of cytosol was 90 µL, and then 10 µL of the compound at each gradient concentration was added. That is, the highest concentration was 10 µM, which was diluted stepwise by ⅓, and 8 concentration points were set in total; 0.1% DMSO (dimethyl sulfoxide) was contained in the system. The cell plate with uniformly mixed compound was cultured in a cell culture incubator (37° C.; 5% CO2) for 48 h, then 20 µL of MTS reaction solution was added, uniformly mixed and incubated in the cell culture incubator (37° C.; 5% CO2) for 1-4 h. OD values at 490 nm were measured by a microplate reader (VARIOSKAN FLASH, Thermo). Two parallels were set in each group of experiments, with 0.1% (a final concentration) DMSO as a negative control, and a culture medium without cells and compounds as a blank control. The cell growth inhibition rate was calculated by the following formula: […]
(§5) 4) IC50 calculation: The semi-inhibitory concentration of the compounds acting on cells was calculated using GradPad Prism 5 software according to the measured cell growth inhibition rate.

[2] = target: T2, various mutants of kinase EGFR (BaF3 cell lines stably transfected with kinase) (Homo sapiens, UniProt P00533, L858R/T790M)
T2 construct: expressed in transfected cells; host or cells: BaF3
Method: as §1, §2, §3, §4, §5

[3] = target: T3, various mutants of kinase EGFR (BaF3 cell lines stably transfected with kinase) (Homo sapiens, UniProt P00533, T790M, form not given)
T3 construct: other: BaF3 cells stably transfected with EGFR Δ19Del/T790M; MTS, 48 h; other: BaF3 cell line stably transfected with EGFR Δ19Del/T790M; MTS, 48
Method: as §1, §2, §3, §4, §5

[4] = target: T4, various mutants of kinase EGFR (BaF3 cell lines stably transfected with kinase) (Homo sapiens, UniProt P00533, L858R)
T4 construct: expressed in transfected cells; host or cells: BaF3
Method: as §1, §2, §3, §4, §5

[5] = target: T5, various mutants of kinase EGFR (BaF3 cell lines stably transfected with kinase) (Homo sapiens, UniProt P00533, T790M/C797S, form not given)
T5 construct: other: BaF3 cells stably transfected with EGFR Δ19Del/T790M/C797S; MTS, 48; other: BaF3 cell line stably transfected with EGFR Δ19Del/T790M/C7
Method: as §1, §2, §3, §4, §5

[6] = target: T6, various mutants of kinase EGFR (BaF3 cell lines stably transfected with kinase) (Homo sapiens, UniProt P00533, C797S/L858R/T790M)
T6 construct: expressed in transfected cells; host or cells: BaF3
Method: as §1, §2, §3, §4, §5

[7] = BaF3 cells stably transfected with EGFR Δ19Del, read-out: IC50, growth inhibition, Δ19Del
[8] = BaF3 cells stably transfected with EGFR L858R/T790M, read-out: IC50, growth inhibition, L858R/T790M
[9] = BaF3 cells stably transfected with EGFR Δ19Del/T790M, read-out: IC50, growth inhibition, Δ19Del/T790M
[10] = BaF3 cells stably transfected with EGFR L858R, read-out: IC50, growth inhibition, L858R
[11] = BaF3 cells stably transfected with EGFR Δ19Del/T790M/C797S, read-out: IC50, growth inhibition, Δ19Del/T790M/C797S
[12] = BaF3 cells stably transfected with EGFR L858R/T790M/C797S, read-out: IC50, growth inhibition, L858R/T790M/C797S
[13] = BaF3 cell line stably transfected with EGFR Δ19Del, read-out: Δ19Del growth inhibitory activity IC50
[14] = BaF3 cell line stably transfected with EGFR L858R/T790M, read-out: L858R/ T790M growth inhibitory activity IC50
[15] = BaF3 cell line stably transfected with EGFR Δ19Del/T790M, read-out: Δ19Del/ T790M growth inhibitory activity IC50
[16] = BaF3 cell line stably transfected with EGFR L858R, read-out: L858R growth inhibitory activity IC50
[17] = BaF3 cell line stably transfected with EGFR Δ19Del/T790M/C797S, read-out: Δ19Del/T790M/ C797S growth inhibitory activity IC50
[18] = BaF3 cell line stably transfected with EGFR L858R/T790M/C797S, read-out: L858R/T790M/ C797S growth inhibitory activity IC50

T1 sequence (P00533 with tags, fused parts or gaps DEL746-750): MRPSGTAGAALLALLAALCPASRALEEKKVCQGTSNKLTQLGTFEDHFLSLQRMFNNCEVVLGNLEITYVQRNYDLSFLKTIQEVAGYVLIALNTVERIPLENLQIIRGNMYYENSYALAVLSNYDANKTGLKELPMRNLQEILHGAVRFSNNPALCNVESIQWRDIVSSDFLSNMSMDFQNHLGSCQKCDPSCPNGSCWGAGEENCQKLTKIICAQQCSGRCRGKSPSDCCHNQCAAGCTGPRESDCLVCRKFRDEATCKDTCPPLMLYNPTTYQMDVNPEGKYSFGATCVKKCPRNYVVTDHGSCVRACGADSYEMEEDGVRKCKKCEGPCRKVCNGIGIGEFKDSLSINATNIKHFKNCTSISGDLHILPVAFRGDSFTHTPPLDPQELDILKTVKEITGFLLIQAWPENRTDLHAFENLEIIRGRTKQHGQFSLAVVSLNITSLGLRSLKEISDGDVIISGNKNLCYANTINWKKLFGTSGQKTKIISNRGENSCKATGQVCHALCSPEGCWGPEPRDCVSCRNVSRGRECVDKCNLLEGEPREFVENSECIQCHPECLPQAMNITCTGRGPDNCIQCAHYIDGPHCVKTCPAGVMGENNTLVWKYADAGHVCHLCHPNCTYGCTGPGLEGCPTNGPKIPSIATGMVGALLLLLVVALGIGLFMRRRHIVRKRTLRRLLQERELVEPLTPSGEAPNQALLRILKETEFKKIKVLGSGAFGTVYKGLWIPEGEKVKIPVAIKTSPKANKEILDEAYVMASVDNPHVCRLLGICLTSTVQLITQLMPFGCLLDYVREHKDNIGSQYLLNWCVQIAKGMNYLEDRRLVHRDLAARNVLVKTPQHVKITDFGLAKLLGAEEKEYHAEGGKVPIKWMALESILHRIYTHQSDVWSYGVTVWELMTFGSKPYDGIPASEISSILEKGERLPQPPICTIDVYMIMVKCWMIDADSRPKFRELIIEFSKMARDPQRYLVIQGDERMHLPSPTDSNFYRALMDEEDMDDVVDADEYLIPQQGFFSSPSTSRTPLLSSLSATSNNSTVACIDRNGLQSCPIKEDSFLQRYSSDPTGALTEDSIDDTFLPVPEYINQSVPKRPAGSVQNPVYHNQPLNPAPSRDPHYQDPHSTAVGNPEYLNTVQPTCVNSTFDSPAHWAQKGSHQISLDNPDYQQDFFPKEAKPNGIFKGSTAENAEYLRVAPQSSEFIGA
T6 sequence (P00533 25-1210 T790M/C797S/L858R): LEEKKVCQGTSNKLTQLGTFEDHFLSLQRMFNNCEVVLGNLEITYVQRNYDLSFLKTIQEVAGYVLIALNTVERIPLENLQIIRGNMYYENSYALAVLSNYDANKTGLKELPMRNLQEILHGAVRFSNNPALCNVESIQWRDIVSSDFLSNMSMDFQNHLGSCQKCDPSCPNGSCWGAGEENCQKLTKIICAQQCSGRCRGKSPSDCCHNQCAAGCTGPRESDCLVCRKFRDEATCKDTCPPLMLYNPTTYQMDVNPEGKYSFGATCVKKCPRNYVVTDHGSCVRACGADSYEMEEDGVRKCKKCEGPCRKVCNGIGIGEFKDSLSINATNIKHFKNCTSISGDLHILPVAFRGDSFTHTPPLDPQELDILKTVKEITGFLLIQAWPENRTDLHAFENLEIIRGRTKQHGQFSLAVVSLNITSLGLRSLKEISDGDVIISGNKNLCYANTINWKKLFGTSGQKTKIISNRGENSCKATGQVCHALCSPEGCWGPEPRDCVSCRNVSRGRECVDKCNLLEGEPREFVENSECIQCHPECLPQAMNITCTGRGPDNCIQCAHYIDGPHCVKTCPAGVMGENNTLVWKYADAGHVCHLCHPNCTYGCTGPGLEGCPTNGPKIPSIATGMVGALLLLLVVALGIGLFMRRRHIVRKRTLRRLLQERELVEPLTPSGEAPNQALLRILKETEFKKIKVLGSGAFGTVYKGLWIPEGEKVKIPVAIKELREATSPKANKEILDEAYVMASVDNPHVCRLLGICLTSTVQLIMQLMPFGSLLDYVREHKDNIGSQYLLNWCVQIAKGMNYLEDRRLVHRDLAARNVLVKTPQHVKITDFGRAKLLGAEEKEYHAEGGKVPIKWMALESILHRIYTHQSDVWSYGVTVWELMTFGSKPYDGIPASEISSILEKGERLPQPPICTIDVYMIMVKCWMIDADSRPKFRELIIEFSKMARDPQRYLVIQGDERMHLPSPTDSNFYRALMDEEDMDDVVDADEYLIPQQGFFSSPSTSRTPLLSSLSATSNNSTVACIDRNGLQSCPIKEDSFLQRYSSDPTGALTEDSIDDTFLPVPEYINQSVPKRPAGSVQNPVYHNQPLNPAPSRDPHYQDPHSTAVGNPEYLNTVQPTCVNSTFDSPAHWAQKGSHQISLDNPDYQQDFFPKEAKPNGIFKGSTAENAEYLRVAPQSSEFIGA
T2 sequence (P00533 25-1210 T790M/L858R): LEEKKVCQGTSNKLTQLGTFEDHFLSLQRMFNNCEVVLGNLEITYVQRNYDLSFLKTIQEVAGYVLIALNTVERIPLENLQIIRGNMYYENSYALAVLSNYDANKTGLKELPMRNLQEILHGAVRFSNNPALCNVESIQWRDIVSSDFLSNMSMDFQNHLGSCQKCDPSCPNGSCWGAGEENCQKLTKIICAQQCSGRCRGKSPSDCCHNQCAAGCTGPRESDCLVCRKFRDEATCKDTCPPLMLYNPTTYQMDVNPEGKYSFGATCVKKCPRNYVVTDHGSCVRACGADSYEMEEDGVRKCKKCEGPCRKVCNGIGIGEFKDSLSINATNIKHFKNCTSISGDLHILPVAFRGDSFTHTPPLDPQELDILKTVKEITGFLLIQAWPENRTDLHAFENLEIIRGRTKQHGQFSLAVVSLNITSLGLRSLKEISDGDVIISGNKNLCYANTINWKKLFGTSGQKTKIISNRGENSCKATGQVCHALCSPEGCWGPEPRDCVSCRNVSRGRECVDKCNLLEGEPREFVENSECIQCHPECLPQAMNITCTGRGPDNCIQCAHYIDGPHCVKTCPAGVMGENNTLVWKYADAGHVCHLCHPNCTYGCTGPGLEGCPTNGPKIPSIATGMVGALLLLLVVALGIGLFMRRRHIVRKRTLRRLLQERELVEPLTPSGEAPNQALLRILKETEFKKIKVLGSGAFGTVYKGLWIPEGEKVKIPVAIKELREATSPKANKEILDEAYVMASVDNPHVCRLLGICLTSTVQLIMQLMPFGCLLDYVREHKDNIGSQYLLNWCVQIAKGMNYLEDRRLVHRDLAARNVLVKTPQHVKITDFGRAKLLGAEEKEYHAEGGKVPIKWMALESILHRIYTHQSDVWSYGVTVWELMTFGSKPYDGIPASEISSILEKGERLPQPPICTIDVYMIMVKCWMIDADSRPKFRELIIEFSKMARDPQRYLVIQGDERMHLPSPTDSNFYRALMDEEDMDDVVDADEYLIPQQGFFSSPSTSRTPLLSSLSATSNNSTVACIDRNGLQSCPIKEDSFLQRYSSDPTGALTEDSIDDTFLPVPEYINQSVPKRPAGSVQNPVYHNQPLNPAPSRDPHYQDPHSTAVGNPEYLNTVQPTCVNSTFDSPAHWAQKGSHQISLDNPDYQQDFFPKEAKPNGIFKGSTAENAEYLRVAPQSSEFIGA
T3 sequence (P00533 with tags, fused parts or gaps DEL746-750/T790M, form open): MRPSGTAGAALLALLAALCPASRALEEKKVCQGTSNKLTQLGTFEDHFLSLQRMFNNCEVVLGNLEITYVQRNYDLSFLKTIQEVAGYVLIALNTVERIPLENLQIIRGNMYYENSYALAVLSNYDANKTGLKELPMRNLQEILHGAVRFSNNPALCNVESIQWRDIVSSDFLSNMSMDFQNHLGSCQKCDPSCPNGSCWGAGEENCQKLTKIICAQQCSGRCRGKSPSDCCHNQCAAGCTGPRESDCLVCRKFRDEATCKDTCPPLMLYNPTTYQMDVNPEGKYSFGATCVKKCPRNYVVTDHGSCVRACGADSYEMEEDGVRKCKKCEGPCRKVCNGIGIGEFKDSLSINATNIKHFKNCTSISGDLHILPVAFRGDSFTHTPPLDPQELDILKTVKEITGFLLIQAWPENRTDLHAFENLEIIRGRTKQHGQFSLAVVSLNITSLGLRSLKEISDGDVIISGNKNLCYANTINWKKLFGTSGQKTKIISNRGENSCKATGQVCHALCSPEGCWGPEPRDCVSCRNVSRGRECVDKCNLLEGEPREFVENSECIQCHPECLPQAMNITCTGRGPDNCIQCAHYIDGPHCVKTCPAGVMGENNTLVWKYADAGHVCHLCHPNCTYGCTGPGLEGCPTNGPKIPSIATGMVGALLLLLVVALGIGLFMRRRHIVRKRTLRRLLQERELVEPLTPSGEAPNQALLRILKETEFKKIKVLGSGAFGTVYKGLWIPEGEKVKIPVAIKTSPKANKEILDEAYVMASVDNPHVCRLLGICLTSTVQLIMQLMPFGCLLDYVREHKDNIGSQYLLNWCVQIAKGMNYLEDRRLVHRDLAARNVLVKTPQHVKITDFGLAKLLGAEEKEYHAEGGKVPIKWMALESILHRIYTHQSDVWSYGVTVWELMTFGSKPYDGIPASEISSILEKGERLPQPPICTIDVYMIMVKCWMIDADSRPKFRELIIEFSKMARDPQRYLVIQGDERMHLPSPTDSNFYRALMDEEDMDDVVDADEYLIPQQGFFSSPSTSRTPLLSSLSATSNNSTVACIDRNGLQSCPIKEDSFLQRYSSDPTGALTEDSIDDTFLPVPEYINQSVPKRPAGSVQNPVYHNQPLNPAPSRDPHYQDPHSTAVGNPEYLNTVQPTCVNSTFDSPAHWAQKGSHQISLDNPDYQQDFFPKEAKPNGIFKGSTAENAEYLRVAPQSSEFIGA

SMILES | IC50 [1, 7] [nM] | IC50 [2, 8] [nM] | IC50 [3, 9] [nM] | IC50 [4, 10] [nM] | IC50 [5, 11] [nM] | IC50 [6, 12] [nM] | IC50 [1, 13] [nM] | IC50 [2, 14] [nM] | IC50 [3, 15] [nM] | IC50 [4, 16] [nM] | IC50 [5, 17] [nM] | IC50 [6, 18] [nM]
COc1cc(N2CCC(N3CCN(C)CC3)CC2)ccc1Nc1ncc(Br)c(Nc2ccc3nccnc3c2N(C)S(=O)(=O)C(F)(F)F)n1 [Compound I-256] | 500 to 2500 | 50 to 500 | 500 to 2500 | 500 to 2500 | 50 to 500 | 50 to 500 |  |  |  |  |  | 
CCc1cc(Nc2ncc(Br)c(Nc3ccc4nccnc4c3NS(C)(=O)=O)n2)c(OC)cc1N1CCN(C)CC1 [Compound I-411] |  |  |  |  |  |  | ≤ 50 | ≤ 50 | ≤ 50 | ≤ 50 | ≤ 50 | ≤ 50
COc1ccc(N2CCC(O)CC2)cc1Nc1ncc(Br)c(Nc2ccc3nccnc3c2N(C2CC2)S(C)(=O)=O)n1 [Compound I-380] |  |  |  |  |  |  | ≤ 50 | ≤ 50 | ≤ 50 | ≤ 50 | ≤ 50 | ≤ 50
CCc1cnc(Nc2cc(CC)c(N3CCC(N4CCN(C)CC4)CC3)nc2OC)nc1Nc1ccc2nccnc2c1N(C)S(C)(=O)=O [Compound I-320] |  |  |  |  |  |  | ≤ 50 | ≤ 50 | ≤ 50 | ≤ 50 | ≤ 50 | ≤ 50
COc1cc(N2CCC(N3CCN(C)CC3)CC2)c(Cc2ccccc2)cc1Nc1nc(Nc2ccc3nccnc3c2N(C)S(C)(=O)=O)c2sccc2n1 [II-1-11] |  |  |  |  |  |  | 500 to 2500 | 500 to 2500 | 50 to 500 | 500 to 2500 | 500 to 2500 | 500 to 2500
CCc1cc(Nc2ncc(Br)c(Nc3ccc4nccnc4c3N(C)S(=O)(=O)C(C)C)n2)c(OC)cc1N1CCC(N(C)C)CC1 [Compound I-137] | 50 to 500 | ≤ 50 | ≤ 50 | ≤ 50 | ≤ 50 | ≤ 50 |  |  |  |  |  | 
CCc1cc(Nc2ncc(Cl)c(Nc3ccc4nccnc4c3N(C)S(=O)(=O)C(C)C)n2)c(OC)cc1N1CCC(N(C)C)CC1 [Compound I-142] | ≤ 50 | ≤ 50 | ≤ 50 | ≤ 50 | ≤ 50 | ≤ 50 |  |  |  |  |  | 
COc1cc(N2CCC(N3CCN(C)CC3)CC2)c(C2CC2)cc1Nc1ncc(Br)c(Nc2ccc3nccnc3c2NS(C)(=O)=O)n1 [Compound I-407] |  |  |  |  |  |  | ≤ 50 | ≤ 50 | ≤ 50 | ≤ 50 | ≤ 50 | ≤ 50
C=Cc1cc(Nc2ncc(Cl)c(Nc3ccc4nccnc4c3N(C3CC3)S(C)(=O)=O)n2)c(OC(F)(F)F)cc1N1CCC(N2CCN(C)CC2)CC1 [Compound I-304] |  |  |  |  |  |  | 50 to 500 | ≤ 50 | ≤ 50 | 50 to 500 | 50 to 500 | 50 to 500
COc1cc(N2CCC(N(C)C)C2)c(C)cc1Nc1ncc(Br)c(Nc2ccc3nccnc3c2N(C2CC2)S(C)(=O)=O)n1 (stereo not drawn) [Compound I-312] |  |  |  |  |  |  | 50 to 500 | ≤ 50 | ≤ 50 | 50 to 500 | ≤ 50 | ≤ 50
CCc1cc(Nc2ncc(Cl)c(Nc3ccc4nccnc4c3N(C)S(=O)(=O)C(F)(F)F)n2)c(OC)nc1N1CCC(N2CCN(C)CC2)CC1 [Compound I-262] | 500 to 2500 | 500 to 2500 | 50 to 500 | 500 to 2500 | 50 to 500 | 50 to 500 |  |  |  |  |  | 
CCc1cc(Nc2ncc(C3CC3)c(Nc3ccc4nccnc4c3N(C)S(C)(=O)=O)n2)c(OC)cc1C(=O)N1CCC(N2CCN(C)CC2)CC1 [Compound I-347] |  |  |  |  |  |  | 500 to 2500 | 50 to 500 | 500 to 2500 | 50 to 500 | 50 to 500 | 50 to 500

Second part, the molecule after the results:

IC50 [1, 7] [nM] | IC50 [2, 8] [nM] | IC50 [3, 9] [nM] | IC50 [4, 10] [nM] | IC50 [5, 11] [nM] | IC50 [6, 12] [nM] | IC50 [1, 13] [nM] | IC50 [2, 14] [nM] | IC50 [3, 15] [nM] | IC50 [4, 16] [nM] | IC50 [5, 17] [nM] | IC50 [6, 18] [nM] | SMILES
50 to 500 | 50 to 500 | 50 to 500 | ≤ 50 | ≤ 50 | 50 to 500 |  |  |  |  |  |  | COc1cc(N2CCN(C)CC2)c(C)cc1Nc1ncc(F)c(Nc2ccc3nccnc3c2N(C)S(C)(=O)=O)n1 [Compound I-185]
≤ 50 | ≤ 50 | ≤ 50 | ≤ 50 | ≤ 50 | ≤ 50 |  |  |  |  |  |  | CCN(c1c(Nc2nc(Nc3cc(C)c(N4CCC(N5CCN(C)CC5)CC4)cc3OC)ncc2Br)ccc2nccnc12)S(C)(=O)=O [Compound I-94]
 |  |  |  |  |  | 50 to 500 | ≤ 50 | ≤ 50 | ≤ 50 | ≤ 50 | ≤ 50 | CN1CCN(C2CCN(c3c(F)cc(Nc4ncc(Cl)c(Nc5ccc6nccnc6c5N(C)S(C)(=O)=O)n4)cc3F)CC2)CC1 [Compound I-357]
≤ 50 | ≤ 50 | ≤ 50 | ≤ 50 | ≤ 50 | ≤ 50 |  |  |  |  |  |  | COc1cc(N2CCC(N3CCN(C)CC3)CC2)c(C)cc1Nc1ncc(Cl)c(Nc2ccc3nccnc3c2N(C)S(C)(=O)=O)n1 [Compound I-19]
50 to 500 | 50 to 500 | 50 to 500 | 50 to 500 | 50 to 500 | 50 to 500 |  |  |  |  |  |  | COc1cc(N2CCC(N3CCN(C)CC3)CC2)c(C)cc1Nc1ncc(C#N)c(Nc2ccc3nccnc3c2N(C)S(C)(=O)=O)n1 [Compound I-28]
≤ 50 | ≤ 50 | ≤ 50 | ≤ 50 | ≤ 50 | ≤ 50 |  |  |  |  |  |  | CCc1cc(Nc2ncc(Cl)c(Nc3ccc4nccnc4c3N(C)S(=O)(=O)C3CC3)n2)c(OC)cc1N1CCC(N2CCN(C)CC2)CC1 [Compound I-120]
≤ 50 | ≤ 50 | ≤ 50 | ≤ 50 | ≤ 50 | ≤ 50 |  |  |  |  |  |  | CCS(=O)(=O)N(C)c1c(Nc2nc(Nc3cc(C)c(N4CCC(N5CCN(C)CC5)CC4)cc3OC)ncc2Br)ccc2nccnc12 [Compound I-99]
50 to 500 | ≤ 50 | ≤ 50 | 50 to 500 | ≤ 50 | ≤ 50 |  |  |  |  |  |  | COc1cc(N2CCN(C)CC2)c(C)cc1Nc1ncc(C(F)(F)F)c(Nc2ccc3nccnc3c2N(C)S(C)(=O)=O)n1 [Compound I-207]
 |  |  |  |  |  | 50 to 500 | ≤ 50 | ≤ 50 | 50 to 500 | ≤ 50 | ≤ 50 | COc1cc(N2CCC(N3CCN(C)CC3)CC2)c(C)cc1Nc1nc(Nc2ccc3nccnc3c2N(C)S(C)(=O)=O)c2cc[nH]c2n1 [II-2-5]
≤ 50 | ≤ 50 | ≤ 50 | ≤ 50 | ≤ 50 | ≤ 50 |  |  |  |  |  |  | CCc1cc(Nc2ncc(Cl)c(Nc3ccc4nccnc4c3N(CC)S(C)(=O)=O)n2)c(OC)cc1N1CCC(N2CCN(C)CC2)CC1 [Compound I-110]
50 to 500 | ≤ 50 | ≤ 50 | 50 to 500 | ≤ 50 | ≤ 50 |  |  |  |  |  |  | CCc1cc(Nc2ncc(Br)c(Nc3ccc4nccnc4c3N(C)S(=O)(=O)C(C)C)n2)c(OC)cc1N1CCC(N2CCN(C)CC2)CC1 [Compound I-135]
